In ChEMBL document CHEMBL4373743, “Selective apoptosis-inducing activity of synthetic hydrocarbon-stapled SOS1 helix with d-amino acids in H358 cancer cells expressing KRASG12C” (Eur J Med Chem, 2020):
Calls of active or inactive are those of the source. No cut-off for these calls is given here. Bridge positions count the residues as written; N and C are the ends. Square brackets hold non-standard residues; d marks the D form. Peptide text beside a SMILES is read from it. S5 = C=CCCC[C@](C)(N)C(=O)O

Assays:
A549 [1] = assay: Induction of apoptosis in human A549 cells harboring KRAS G12S mutant assessed as early apoptotic cells at 10 uM incubated for 24 hrs by Annexin V-FITC/PI staining based flow cytometric analysis (reference value: 6.09%); format: functional
A549 [2] = assay: Induction of apoptosis in human A549 cells harboring KRAS G12S mutant assessed as early apoptotic cells at 20 uM incubated for 24 hrs by Annexin V-FITC/PI staining based flow cytometric analysis (reference value: 6.09%); format: functional
NCI-H358 [3] = assay: Induction of apoptosis in human NCI-H358 cells harboring KRAS G12C mutant assessed as early apoptotic cells at 10 uM incubated for 24 hrs by Annexin V-FITC/PI staining based flow cytometric analysis (reference value: 4.34%); format: functional
A549 [4] = assay: Induction of apoptosis in human A549 cells harboring KRAS G12S mutant assessed as viable cells at 2.5 uM incubated for 24 hrs by Annexin V-FITC/PI staining based flow cytometric analysis (reference value: 68.3%); format: functional; details: A549, 24 h, read-out: Activity
NCI-H358 [5] = assay: Induction of apoptosis in human NCI-H358 cells harboring KRAS G12C mutant assessed as viable cells at 20 uM incubated for 24 hrs by Annexin V-FITC/PI staining based flow cytometric analysis (reference value: 67.2%); format: functional; details: NCI-H358, 24 h, read-out: Activity
A549 [6] = assay: Induction of apoptosis in human A549 cells harboring KRAS G12S mutant assessed as viable cells at 20 uM incubated for 24 hrs by Annexin V-FITC/PI staining based flow cytometric analysis (reference value: 68.3%); format: functional; details: A549, 24 h, read-out: Activity
A549 [7] = assay: Induction of apoptosis in human A549 cells harboring KRAS G12S mutant assessed as late apoptotic cells at 10 uM incubated for 24 hrs by Annexin V-FITC/PI staining based flow cytometric analysis (reference value: 25.4%); format: functional
A549 [8] = assay: Induction of cell cycle arrest in human A549 cells harboring KRAS G12S mutant assessed as accumulation at G2/M phase at 10 to 40 uM incubated for 24 hrs by PI staining based flow cytometric analysis; format: functional
NCI-H358 [9] = assay: Induction of apoptosis in human NCI-H358 cells harboring KRAS G12C mutant assessed as increase in bax protein level at 40 uM incubated for 24 hrs by Western blot analysis; format: functional, cell-based
NCI-H358 [10] = assay: Induction of apoptosis in human NCI-H358 cells harboring KRAS G12C mutant assessed as necrotic cells at 2.5 uM incubated for 24 hrs by Annexin V-FITC/PI staining based flow cytometric analysis (reference value: 0.28%); format: functional
NCI-H358 [11] = assay: Induction of cell cycle arrest in human NCI-H358 cells harboring KRAS G12C mutant assessed as reduction in CDK1 protein expression at 40 uM incubated for 24 hrs by Western blot analysis; format: functional, cell-based
A549 [12] = assay: Induction of apoptosis in human A549 cells harboring KRAS G12S mutant assessed as late apoptotic cells at 20 uM incubated for 24 hrs by Annexin V-FITC/PI staining based flow cytometric analysis (reference value: 25.4%); format: functional
A549 [13] = assay: Antiproliferative activity against human A549 cells harboring KRAS G12S mutant at 0.37 to 10 uM incubated for 24 hrs by MTT assay; format: functional, cell-based
NCI-H358 [14] = assay: Induction of apoptosis in human NCI-H358 cells harboring KRAS G12C mutant assessed as late apoptotic cells at 2.5 uM incubated for 24 hrs by Annexin V-FITC/PI staining based flow cytometric analysis (reference value: 28.2%); format: functional
A549 [15] = assay: Induction of apoptosis in human A549 cells harboring KRAS G12S mutant assessed as viable cells at 10 uM incubated for 24 hrs by Annexin V-FITC/PI staining based flow cytometric analysis (reference value: 68.3%); format: functional; details: A549, 24 h, read-out: Activity
NCI-H358 [16] = assay: Induction of apoptosis in human NCI-H358 cells harboring KRAS G12C mutant assessed as late apoptotic cells at 10 uM incubated for 24 hrs by Annexin V-FITC/PI staining based flow cytometric analysis (reference value: 28.2%); format: functional
NCI-H358 [17] = assay: Induction of cell cycle arrest in human NCI-H358 cells harboring KRAS G12C mutant assessed as accumulation at G2/M phase at 10 to 40 uM incubated for 24 hrs by PI staining based flow cytometric analysis (reference value: 11.08%); format: functional
A549 [18] = assay: Induction of apoptosis in human A549 cells harboring KRAS G12S mutant assessed as late apoptotic cells at 2.5 uM incubated for 24 hrs by Annexin V-FITC/PI staining based flow cytometric analysis (reference value: 25.4%); format: functional
NCI-H358 [19] = assay: Induction of apoptosis in human NCI-H358 cells harboring KRAS G12C mutant assessed as viable cells at 2.5 uM incubated for 24 hrs by Annexin V-FITC/PI staining based flow cytometric analysis (reference value: 67.2%); format: functional; details: NCI-H358, 24 h, read-out: Activity
NCI-H358 [20] = assay: Induction of apoptosis in human NCI-H358 cells harboring KRAS G12C mutant assessed as necrotic cells at 20 uM incubated for 24 hrs by Annexin V-FITC/PI staining based flow cytometric analysis (reference value: 0.28%); format: functional
A549 [21] = assay: Induction of apoptosis in human A549 cells harboring KRAS G12S mutant assessed as early apoptotic cells at 2.5 uM incubated for 24 hrs by Annexin V-FITC/PI staining based flow cytometric analysis (reference value: 6.09%); format: functional
NCI-H358 [22] = assay: Induction of apoptosis in human NCI-H358 cells harboring KRAS G12C mutant assessed as late apoptotic cells at 20 uM incubated for 24 hrs by Annexin V-FITC/PI staining based flow cytometric analysis (reference value: 28.2%); format: functional
NCI-H358 [23] = assay: Antiproliferative activity against human NCI-H358 cells harboring KRAS G12C mutant incubated for 24 hrs by MTT assay; format: functional, cell-based
NCI-H358 [24] = assay: Induction of apoptosis in human NCI-H358 cells harboring KRAS G12C mutant assessed as decrease in bcl2 protein level at 40 uM incubated for 24 hrs by Western blot analysis; format: functional, cell-based
GTPase KRas = GTPase KRas (Homo sapiens, UniProt P01116, G12C); assay: Binding affinity to biotinylated N-terminal His6-tagged recombinant KRAS G12C mutant (unknown origin) by BLI method
NCI-H358 [25] = assay: Induction of cell cycle arrest in human NCI-H358 cells harboring KRAS G12C mutant assessed as reduction in cyclin B1 protein expression at 40 uM incubated for 24 hrs by Western blot analysis; format: functional, cell-based
A549 [26] = assay: Induction of cell cycle arrest in human A549 cells harboring KRAS G12S mutant assessed as as reduction in cyclin B1 protein expression at 40 uM incubated for 24 hrs by Western blot analysis; format: functional, cell-based
A549 [27] = assay: Induction of apoptosis in human A549 cells harboring KRAS G12S mutant assessed as necrotic cells at 2.5 uM incubated for 24 hrs by Annexin V-FITC/PI staining based flow cytometric analysis (reference value: 0.16%); format: functional
NCI-H358 [28] = assay: Induction of apoptosis in human NCI-H358 cells harboring KRAS G12C mutant incubated for 24 hrs by Annexin V-FITC/PI staining based flow cytometric analysis; format: functional, cell-based
NCI-H358 [29] = assay: Induction of cell cycle arrest in human NCI-H358 cells harboring KRAS G12C mutant assessed as accumulation at G2/M phase incubated for 24 hrs by PI staining based flow cytometric analysis; format: functional

Chain of GTPase KRas (P01116 whole entry G12C): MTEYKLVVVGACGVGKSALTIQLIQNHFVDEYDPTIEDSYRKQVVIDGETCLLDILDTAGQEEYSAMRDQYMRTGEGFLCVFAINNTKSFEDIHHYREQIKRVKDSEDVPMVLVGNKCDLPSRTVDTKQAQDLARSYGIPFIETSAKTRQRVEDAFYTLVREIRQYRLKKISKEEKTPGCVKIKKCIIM

CC[C@H](C)[C@H](NC(=O)CNC(=O)[C@H](Cc1ccccc1)NC(=O)[C@H](Cc1ccccc1)NC(=O)[C@H](CCCNC(=N)N)NC(=O)[C@H](CCCNC(=N)N)NC(C)=O)C(=O)N[C@@]1(C)CCC/C=C\CCC[C@@](C)(C(=O)N[C@@H](CC(C)C)C(=O)N[C@@H](CCCCN)C(=O)N[C@H](C(=O)N[C@@H](CCC(=O)O)C(=O)N[C@@H](CCC(=O)O)C(=O)NCC(=O)N[C@@H](CC(N)=O)C(=O)O)[C@@H](C)O)NC(=O)[C@H](CC(N)=O)NC(=O)[C@H](CC(=O)O)NC(=O)[C@H]([C@@H](C)O)NC(=O)[C@H](CC(C)C)NC(=O)[C@H](CC(=O)O)NC1=O (Ac-RRFFGI[S5]DLTDN[S5]LKTEEGN-OH; staple (Z) 7-13)
Activity (A549 [1]): 1.79%
Activity (A549 [2]): 1.68%
Activity (NCI-H358 [3]): 6.37%
viability at 2.5 µM (A549 [4]): 60.4%
viability at 20 µM (NCI-H358 [5]): 46.7%
viability at 20 µM (A549 [6]): 67.3%
Activity (A549 [7]): 30.1%
Activity (A549 [8]): inactive
Activity (NCI-H358 [9]): Active
Activity (NCI-H358 [10]): 0.14%
Activity (NCI-H358 [11]): Active
Activity (A549 [12]): 30.7%
Activity (A549 [13]): inactive
Activity (NCI-H358 [14]): 33%
viability at 10 µM (A549 [15]): 67.6%
Activity (NCI-H358 [16]): 40.8%
Activity (NCI-H358 [17]): 34.4%
Activity (A549 [18]): 38.5%
viability at 2.5 µM (NCI-H358 [19]): 62.7%
Activity (NCI-H358 [20]): 0.21%
Activity (A549 [21]): 2.65%
Activity (NCI-H358 [22]): 46.6%
Activity (NCI-H358 [23]): Dose-dependent effect
Activity (NCI-H358 [24]): Active
Kd (GTPase KRas): 870 nM
Activity (NCI-H358 [25]): Active
Activity (A549 [26]): inactive
Activity (A549 [27]): 0.4%
Activity (NCI-H358 [28]): Dose-dependent effect
Activity (NCI-H358 [29]): Dose-dependent effect
